This note sets out measurements from US11633502B2, “Bone marrow-, reticuloendothelial system-, and/or lymph node-targeted radiolabeled liposomes and methods of their diagnostic and therapeutic use” (Memorial Sloan Kettering Cancer Center, priority 2016, dated 2023).

Molecules are shown by their SMILES.

The nature of this assay: Blood cell counts of GT3 liposome treated mice after ionizing radiation. The class given is in vivo, C57/B6 mice. The note with it: after exposure to 2 or 4 Gy. Here is the method: FIGS. 28A and 28B show blood cell counts of GT3 liposome treated mice after ionization radiation. White blood cell (WBC) (FIG. 28A) and lymph (FIG. 28B) counts are shown for mice treated with 2 Gy+GT3 containing liposomes, 2 Gy, 4 Gy+GT3 containing liposomes, and 4 Gy.
C57/B6 mice were treated with GT3 containing BMT liposomes with 10 mg/kg GT3 at 24 h prior to 2 and 4 Gy. Blood cells were counted at 0, 1, 4, 6, 13 days after irradiation. […] Lymphocyte recovery is the most significant. […] This effect was not seen when GT3 was not targeted to the bone marrow.

Take `CC(C)=CCC/C(C)=C/CC/C(C)=C/CC[C@]1(C)CCc2cc(O)c(C)c(C)c2O1` [GT3]: the “recovery of lymphocyte and neutrophils” value was “not seen”.
